According to ChEMBL document CHEMBL5375963, “Discovery of a First-in-Class Small-Molecule Ligand for WDR91 Using DNA-Encoded Chemical Library Selection Followed by Machine Learning” (J Med Chem, 2023):
Activity calls are given as the source filed them. The rule behind the calls is not given here.

Columns and labels:
[1] = biological target: T1, WD repeat-containing protein 91 (Homo sapiens, UniProt A4D1P6); test: (§1) Binding affinity to C-terminal His6-tagged truncated WDR91 (unknown origin) (P392 to A747 residues) expressed in baculovirus-infected Sf9 cells assessed as dissociation constant incubated for 72 to 96 hrs by SPR analysis
T1 sequence (A4D1P6 whole entry): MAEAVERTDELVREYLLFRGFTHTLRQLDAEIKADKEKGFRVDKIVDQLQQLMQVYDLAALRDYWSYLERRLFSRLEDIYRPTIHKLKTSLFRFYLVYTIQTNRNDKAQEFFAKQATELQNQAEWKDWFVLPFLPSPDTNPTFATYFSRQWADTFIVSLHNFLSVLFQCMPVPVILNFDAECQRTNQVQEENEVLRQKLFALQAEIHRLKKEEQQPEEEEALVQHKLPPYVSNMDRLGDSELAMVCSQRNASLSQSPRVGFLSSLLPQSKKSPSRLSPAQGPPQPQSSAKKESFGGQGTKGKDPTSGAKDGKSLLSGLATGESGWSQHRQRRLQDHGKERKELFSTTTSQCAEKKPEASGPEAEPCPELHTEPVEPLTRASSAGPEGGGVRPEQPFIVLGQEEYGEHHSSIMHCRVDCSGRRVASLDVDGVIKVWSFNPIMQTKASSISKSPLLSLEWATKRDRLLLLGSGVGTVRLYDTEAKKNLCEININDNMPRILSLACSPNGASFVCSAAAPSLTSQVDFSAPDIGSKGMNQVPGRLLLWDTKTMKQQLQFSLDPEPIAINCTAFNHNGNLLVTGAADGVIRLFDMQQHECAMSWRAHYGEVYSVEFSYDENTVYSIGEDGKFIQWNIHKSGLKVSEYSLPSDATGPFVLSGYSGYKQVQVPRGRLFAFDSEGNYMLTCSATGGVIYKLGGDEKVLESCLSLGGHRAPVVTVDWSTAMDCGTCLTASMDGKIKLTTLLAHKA

[2] = biological target: T2, WD repeat-containing protein 91 (Homo sapiens) (UniProt A4D1P6); test: as §1; conditions: time 72-96 hrs
T2 sequence (whole entry): T1 sequence (A4D1P6 whole entry)

[3] = biological target: T2, WD repeat-containing protein 91 (Homo sapiens); test: Binding affinity to C-terminal His6-tagged truncated WDR91 (unknown origin) (P392 to A747 residues) expressed in baculovirus-infected Sf9 cells assessed as covalent adduct formation incubated for 2 hrs by LC-MS analysis
[4] = biological target: T2, WD repeat-containing protein 91 (Homo sapiens); test: Binding affinity to C-terminal His6-tagged truncated WDR91 (unknown origin) (P392 to A747 residues) expressed in baculovirus-infected Sf9 cells assessed as maximum response incubated for 2 hrs relative to control
[5] = biological target: T2, WD repeat-containing protein 91 (Homo sapiens); test: Binding affinity to C-terminal His6-tagged truncated WDR91 (unknown origin) (P392 to A747 residues) expressed in baculovirus-infected Sf9 cells assessed as thermal stabilization by measuring change in melting temperature incubated for 2 hrs by differential scanning fluorimetry analysis

| SMILES | Kd [1] | other results |
| --- | --- | --- |
| Nc1ncnc2ccc(C(=O)NC3(c4ccc(Cl)cc4)COC3)cc12 | 42 µM | – |
| NC(=O)C1CCCN(c2ccc(C(=O)NC(c3ccc(Cl)cc3)C3CC3)cc2)C1 (stereo not drawn) | 37 µM | – |
| O=C(NC1(c2ccc(Cl)cc2)COC1)c1ccc(C2(O)COC2)cc1 | 20 µM | – |
| O=C(NC1(c2ccc(Cl)cc2)COC1)c1ccc(CN2CCCC2=O)cc1 | 11 µM | – |
| O=C(NC(CCO)c1ccc(Cl)cc1)c1ccc(N2CCC(O)C2)cc1 (stereo not drawn) | 15 µM | – |
| C=CC(=O)N1CCCc2c(C(=O)NC(c3ccc(F)cc3)C3CCCCC3)cccc21 (stereo not drawn) | – | Activity [2]: inactive; Activity [3]: inactive; Rmax [4]: inactive |
| O=C(NC1(c2ccc(Cl)cc2)COC1)c1ccc2snnc2c1 | 14 µM | – |
| O=C(NC1(c2ccc(Cl)cc2)COC1)c1ccc(-c2cc[nH]n2)s1 | 8 µM | – |
| Cc1cn2cc(C(=O)NC3(c4ccc(Cl)cc4)COC3)sc2n1 | 11 µM | – |
| O=C1Cc2c(cccc2C(=O)NC2(c3ccc(Cl)cc3)COC2)N1 | 22 µM | – |
| O=C(c1ccc(N2CCC(O)C2)cc1)N1CC(O)(c2ccc(Cl)cc2)C1 (stereo not drawn) | 16 µM | – |
| C=CC(=O)Nc1ccc(CC(=O)NC2(c3ccccc3)COC2)cc1 | – | Activity [2]: inactive; Activity [3]: inactive; Rmax [4]: inactive |
| O=C(NC1(c2ccc(Cl)cc2)COC1)c1ccc(N2CCC(O)CC2)cc1 | 6 µM | – |
| C=CC(=O)N1CCCc2c(C(=O)NC(c3ccc(Cl)cc3)C3CC3)cccc21 (stereo not drawn) | 43 µM | Activity [3]: Active; Rmax [4]: 54%; ΔTm [5]: 4 °C |
| CC(=O)NCc1ccc(C(=O)NC2(c3ccc(Cl)cc3)COC2)cc1 | 97 µM | – |
| C=CC(=O)N1CCCc2c(C(=O)NC3(c4ccc(Cl)cc4)COC3)cccc21 | 36 µM | Activity [3]: Active; Rmax [4]: 53%; ΔTm [5]: 4 °C |
| O=C(NC(CCO)c1ccc(Cl)cc1)c1ccc(CN2CCCC2=O)cc1 (stereo not drawn) | 99 µM | – |
| NC(=O)C1CCCN(c2ccc(C(=O)NC(CCO)c3ccc(Cl)cc3)cc2)C1 (stereo not drawn) | 14 µM | – |
